Tests used:
Assay in all cases: relative viability (nuclei count vs DMSO), 5 days (fraction); higher = more cells survive
201T = test system: 201T
Procedure, shortened: (§1)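 Dosing by pin tool came one day after lung cancer cell lines were seeded in 1536-well plates, using either one drug or a fixed anchor-drug dose plus five library-drug doses (not always all listed) in √10 steps. After 5 days, nuclei were counted on 4× images. Relative viability is treated-well nuclei count divided by vehicle-well nuclei count, and values are medians of duplicate plates.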

ABC-1 = test system: ABC-1
Procedure, shortened: as §1

BEN = test system: BEN
Procedure, shortened: as §1

CAL-12T = test system: CAL-12T
Procedure, shortened: as §1

COR-L 105 = test system: COR-L 105
Procedure, shortened: as §1

EKVX = test system: EKVX
Procedure, shortened: as §1

HARA = test system: HARA
Procedure, shortened: as §1

HCC-366 = test system: HCC-366
Procedure, shortened: as §1

LK-2 = test system: LK-2
Procedure, shortened: as §1

LOU-NH91 = test system: LOU-NH91
Procedure, shortened: as §1

NCI-H1437 = test system: NCI-H1437
Procedure, shortened: as §1

NCI-H1650 = test system: NCI-H1650
Procedure, shortened: as §1

NCI-H1666 = test system: NCI-H1666
Procedure, shortened: as §1

NCI-H2009 = test system: NCI-H2009
Procedure, shortened: as §1

NCI-H2170 = test system: NCI-H2170
Procedure, shortened: as §1

NCI-H3122 = test system: NCI-H3122
Procedure, shortened: as §1

NCI-H441 = test system: NCI-H441
Procedure, shortened: as §1

NCI-H460 = test system: NCI-H460
Procedure, shortened: as §1

NCI-H661 = test system: NCI-H661
Procedure, shortened: as §1

NCI-H727 = test system: NCI-H727
Procedure, shortened: as §1

PC-14 = test system: PC-14
Procedure, shortened: as §1

SW 900 = test system: SW 900
Procedure, shortened: as §1

`CCN(CC)CCCCNc1ncc2cc(-c3cc(OC)cc(OC)c3)c(NC(=O)NC(C)(C)C)nc2n1` + N=C(N)NC(=N)NCCc1ccccc1 [Phenformin] (partner 250 µM) showed a relative viability (201T; first compound 0.01 µM) of 0.477, a relative viability (201T; first compound 0.03162 µM) of 0.479 and a relative viability (201T; first compound 0.1 µM) of 0.51. It also gave a relative viability (201T; first compound 0.3162 µM) of 0.47, a relative viability (201T; first compound 1 µM) of 0.376 and a relative viability (ABC-1; first compound 0.01 µM) of 0.24. It also gave a relative viability (ABC-1; first compound 0.03162 µM) of 0.286, a relative viability (ABC-1; first compound 0.1 µM) of 0.256 and a relative viability (ABC-1; first compound 0.3162 µM) of 0.208. It also gave a relative viability (ABC-1; first compound 1 µM) of 0.254, a relative viability (BEN; first compound 0.01 µM) of 0.261 and a relative viability (BEN; first compound 0.03162 µM) of 0.236. For the same molecule, the relative viability (BEN; first compound 0.1 µM) was 0.278, the relative viability (BEN; first compound 0.3162 µM) was 0.464 and the relative viability (BEN; first compound 1 µM) was 0.244. For the same molecule, the relative viability (CAL-12T; first compound 0.01 µM) was 0.595, the relative viability (CAL-12T; first compound 0.03162 µM) was 0.582 and the relative viability (CAL-12T; first compound 0.1 µM) was 0.673. The relative viability (CAL-12T; first compound 0.3162 µM) was 0.726, the relative viability (CAL-12T; first compound 1 µM) was 0.573 and the relative viability (COR-L 105; first compound 0.01 µM) was 0.476. For the same molecule, the relative viability (COR-L 105; first compound 0.03162 µM) was 0.521, the relative viability (COR-L 105; first compound 0.1 µM) was 0.47 and the relative viability (COR-L 105; first compound 0.3162 µM) was 0.615. It also gave a relative viability (COR-L 105; first compound 1 µM) of 0.421, a relative viability (EKVX; first compound 0.01 µM) of 0.223 and a relative viability (EKVX; first compound 0.03162 µM) of 0.227. For the same molecule, the relative viability (EKVX; first compound 0.1 µM) was 0.243, the relative viability (EKVX; first compound 0.3162 µM) was 0.258 and the relative viability (EKVX; first compound 1 µM) was 0.248. It also gave a relative viability (HARA; first compound 0.01 µM) of 0.49, a relative viability (HARA; first compound 0.03162 µM) of 0.504 and a relative viability (HARA; first compound 0.1 µM) of 0.489. For the same molecule, the relative viability (HARA; first compound 0.3162 µM) was 0.395, the relative viability (HARA; first compound 1 µM) was 0.364 and the relative viability (HCC-366; first compound 0.01 µM) was 0.627. It also gave a relative viability (HCC-366; first compound 0.03162 µM) of 0.666, a relative viability (HCC-366; first compound 0.1 µM) of 0.65 and a relative viability (HCC-366; first compound 0.3162 µM) of 0.622. For the same molecule, the relative viability (HCC-366; first compound 1 µM) was 0.581, the relative viability (LK-2; first compound 0.01 µM) was 0.638 and the relative viability (LK-2; first compound 0.03162 µM) was 0.289. For the same molecule, the relative viability (LK-2; first compound 0.1 µM) was 0.239, the relative viability (LK-2; first compound 0.3162 µM) was 0.304 and the relative viability (LK-2; first compound 1 µM) was 0.223. It also gave a relative viability (LOU-NH91; first compound 0.01 µM) of 0.572, a relative viability (LOU-NH91; first compound 0.03162 µM) of 0.683 and a relative viability (LOU-NH91; first compound 0.1 µM) of 0.795. It also gave a relative viability (LOU-NH91; first compound 0.3162 µM) of 0.797, a relative viability (LOU-NH91; first compound 1 µM) of 0.713 and a relative viability (NCI-H1437; first compound 0.01 µM) of 0.29. For the same molecule, the relative viability (NCI-H1437; first compound 0.03162 µM) was 0.298, the relative viability (NCI-H1437; first compound 0.1 µM) was 0.28 and the relative viability (NCI-H1437; first compound 0.3162 µM) was 0.362. It also gave a relative viability (NCI-H1437; first compound 1 µM) of 0.257, a relative viability (NCI-H1650; first compound 0.01 µM) of 0.456 and a relative viability (NCI-H1650; first compound 0.03162 µM) of 0.416. The relative viability (NCI-H1650; first compound 0.1 µM) was 0.503, the relative viability (NCI-H1650; first compound 0.3162 µM) was 0.319 and the relative viability (NCI-H1650; first compound 1 µM) was 0.232. For the same molecule, the relative viability (NCI-H1666; first compound 0.01 µM) was 0.582, the relative viability (NCI-H1666; first compound 0.03162 µM) was 0.562 and the relative viability (NCI-H1666; first compound 0.1 µM) was 0.574. For the same molecule, the relative viability (NCI-H1666; first compound 0.3162 µM) was 0.644, the relative viability (NCI-H1666; first compound 1 µM) was 0.507 and the relative viability (NCI-H2009; first compound 0.01 µM) was 0.471. The relative viability (NCI-H2009; first compound 0.03162 µM) was 0.462, the relative viability (NCI-H2009; first compound 0.1 µM) was 0.451 and the relative viability (NCI-H2009; first compound 0.3162 µM) was 0.456. For the same molecule, the relative viability (NCI-H2009; first compound 1 µM) was 0.357, the relative viability (NCI-H2170; first compound 0.01 µM) was 0.417 and the relative viability (NCI-H2170; first compound 0.03162 µM) was 0.416. For the same molecule, the relative viability (NCI-H2170; first compound 0.1 µM) was 0.414, the relative viability (NCI-H2170; first compound 0.3162 µM) was 0.413 and the relative viability (NCI-H2170; first compound 1 µM) was 0.345. It also gave a relative viability (NCI-H3122; first compound 0.01 µM) of 0.39, a relative viability (NCI-H3122; first compound 0.03162 µM) of 0.362 and a relative viability (NCI-H3122; first compound 0.1 µM) of 0.633. It also gave a relative viability (NCI-H3122; first compound 0.3162 µM) of 0.367, a relative viability (NCI-H3122; first compound 1 µM) of 0.321 and a relative viability (NCI-H441; first compound 0.01 µM) of 0.826. For the same molecule, the relative viability (NCI-H441; first compound 0.03162 µM) was 0.87, the relative viability (NCI-H441; first compound 0.1 µM) was 1.02 and the relative viability (NCI-H441; first compound 0.3162 µM) was 0.835. For the same molecule, the relative viability (NCI-H441; first compound 1 µM) was 0.933, the relative viability (NCI-H460; first compound 0.01 µM) was 0.536 and the relative viability (NCI-H460; first compound 0.03162 µM) was 0.567. For the same molecule, the relative viability (NCI-H460; first compound 0.1 µM) was 0.53, the relative viability (NCI-H460; first compound 0.3162 µM) was 0.68 and the relative viability (NCI-H460; first compound 1 µM) was 0.329. For the same molecule, the relative viability (NCI-H661; first compound 0.01 µM) was 0.289, the relative viability (NCI-H661; first compound 0.03162 µM) was 0.297 and the relative viability (NCI-H661; first compound 0.1 µM) was 0.27. It also gave a relative viability (NCI-H661; first compound 0.3162 µM) of 0.291, a relative viability (NCI-H661; first compound 1 µM) of 0.278 and a relative viability (NCI-H727; first compound 0.01 µM) of 0.509. The relative viability (NCI-H727; first compound 0.03162 µM) was 0.49, the relative viability (NCI-H727; first compound 0.1 µM) was 0.547 and the relative viability (NCI-H727; first compound 0.3162 µM) was 0.728. It also gave a relative viability (NCI-H727; first compound 1 µM) of 0.632, a relative viability (PC-14; first compound 0.01 µM) of 0.439 and a relative viability (PC-14; first compound 0.03162 µM) of 0.426. It also gave a relative viability (PC-14; first compound 0.1 µM) of 0.661, a relative viability (PC-14; first compound 0.3162 µM) of 0.87 and a relative viability (PC-14; first compound 1 µM) of 0.387. For the same molecule, the relative viability (SW 900; first compound 0.01 µM) was 0.529, the relative viability (SW 900; first compound 0.03162 µM) was 0.678 and the relative viability (SW 900; first compound 0.3162 µM) was 0.48. For the same molecule, the relative viability (SW 900; first compound 1 µM) was 0.364.
